# Measurements reported in US12084472B2 (Ardelyx, Inc., priority 2015, dated 2024).
# Target: T1, human TGR5 (Homo sapiens, UniProt Q8TDU6)
# T1 construct: expressed in transfected cells; host or cells: HEK293
# T1 sequence (Q8TDU6 1-330): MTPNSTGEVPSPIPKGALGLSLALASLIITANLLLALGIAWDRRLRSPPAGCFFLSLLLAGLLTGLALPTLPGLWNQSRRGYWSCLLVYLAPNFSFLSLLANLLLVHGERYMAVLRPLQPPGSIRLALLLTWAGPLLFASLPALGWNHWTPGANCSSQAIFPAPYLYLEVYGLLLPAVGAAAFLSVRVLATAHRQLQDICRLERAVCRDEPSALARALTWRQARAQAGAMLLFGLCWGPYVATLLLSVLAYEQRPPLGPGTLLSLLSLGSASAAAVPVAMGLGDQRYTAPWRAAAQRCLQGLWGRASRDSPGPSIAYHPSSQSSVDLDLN
# Assay: Cell-based TGR5 assay (cAMP generation, HTRF)
# Conditions: HEK293 cells stably transfected with human TGR5; cAMP by HTRF; 30 minutes at 37° C.
# Procedure, shortened: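 Read-out was HTRF detection of cAMP, converted to concentration via a standard curve and fitted (3-parameter logistic) for pEC50 and maximal response. Agonist stimulation used HEK293 cells stably transfected with human TGR5, incubated 30 min at 37° C in IBMX-containing buffer at 0.05 nM to 10 μM compound.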
row,pEC50 Human TGR5,Structure (SMILES)
1,B (B is a pEC50 of 6 to 6.9),"CN(CCCCNC(=O)NCCOCCOCCNC(=O)NCCCCNC(=O)NCCOCCOCCNC(=O)NCCCCN(C)S(=O)(=O)c1ccc(Cl)c(COC2(c3cnccc3-c3ccccc3OC3CC3)CC2)c1)S(=O)(=O)c1ccc(Cl)c(COC2(c3cnccc3-c3ccccc3OC3CC3)CC2)c1 [Compound I-736, 3-(4-[N-methyl[4-chloro-3-([1-[4-(2-cyclopropoxyphenyl)pyridin-3-yl]cyclopropoxy]methyl)benzene]sulfonamido]butyl)-1-[2-(2-[2-[([4-[([2-[2-(2-[[(4-[N-methyl[4-chloro-3-([1-[4-(2-cyclopropoxyphenyl)pyridin-3-yl]cyclopropoxy]methyl)benzene]sulfonamido]butyl)carbamoyl]amino]ethoxy)ethoxy]ethyl]carbamoyl)amino]butyl]carbamoyl)amino]ethoxy]ethoxy)ethyl]urea]"
2,B (B is a pEC50 of 6 to 6.9),"CN(CCCCNC(=O)NCCOCCOCCNC(=O)NCCOCCOCCNC(=O)NCCCCN(C)S(=O)(=O)c1ccc(Cl)c(COC2(c3cnccc3-c3ccccc3OC3CC3)CC2)c1)S(=O)(=O)c1ccc(Cl)c(COC2(c3cnccc3-c3ccccc3OC3CC3)CC2)c1 [Compound I-737, 3-(4-[N-methyl[4-chloro-3-([1-[4-(2-cyclopropoxyphenyl)pyridin-3-yl]cyclopropoxy]methyl)benzene]sulfonamido]butyl)-1-[2-(2-[2-[([2-[2-(2-[[(4-[N-methyl[4-chloro-3-([1-[4-(2-cyclopropoxyphenyl)pyridin-3-yl]cyclopropoxy]methyl)benzene]sulfonamido]butyl)carbamoyl]amino]ethoxy)ethoxy]ethyl]carbamoyl)amino]ethoxy]ethoxy)ethyl]urea]"

# Same assay, conditions: HEK293 cells stably transfected with human TGR5; cAMP by HTRF; 30 minutes at 37° C.; read-out: pEC50 Human TGR5 (converted)
row,Structure (SMILES),EC50
1,"COc1ccc2c(n1)CCN(S(=O)(=O)c1ccc(Cl)c(COC3(c4cnccc4-c4ccccc4OC4CC4)CC3)c1)C2 [Compound I-733, 6-[[4-chloro-3-([1-[4-(2-cyclopropoxyphenyl)pyridin-3-yl]cyclopropoxy]methyl)benzene]sulfonyl]-2-methoxy-5,6,7,8-tetrahydro-1,6-naphthyridine]",< 100 nM
2,"[2H]C([2H])(NC(=O)N[C@@H](CO)[C@@H](O)[C@H](O)[C@H](O)CO)C([2H])([2H])C([2H])([2H])C([2H])([2H])N(C)S(=O)(=O)c1ccc(Cl)c(COC2(c3cnccc3-c3ccccc3OC3CC3)CC2)c1 [Compound I-735, 1-(4-[N-methyl[4-chloro-3-([1-[4-(2-cyclopropoxyphenyl)pyridin-3-yl]cyclopropoxy]methyl)benzene]sulfonamido](d8)butyl)-3-[(2S,3R,4S,5R)-1,3,4,5,6-pentahydroxyhexan-2-yl]urea]",< 100 nM
3,"CCC(=O)OC[C@H](NC(=O)NCCCCN(C)S(=O)(=O)c1ccc(Cl)c(COC2(c3cnccc3-c3ccccc3OC3CC3)CC2)c1)[C@@H](OC(=O)CC)[C@H](OC(=O)CC)[C@@H](COC(=O)CC)OC(=O)CC [Compound I-738, (2R,3S,4R,5S)-5-[[(4-[N-methyl[4-chloro-3-([1-[4-(2-cyclopropoxyphenyl)pyridin-3-yl]cyclopropoxy]methyl)benzene]sulfonamido]butyl)carbamoyl]amino]-1,2,4,6-tetrakis(propanoyloxy)hexan-3-yl propanoate]",126 to 1000 nM
4,"CC(C)N(CCCCNC(=O)N[C@@H](CO)[C@@H](O)[C@H](O)[C@H](O)CO)S(=O)(=O)c1ccc(Cl)c(CNC2(c3cnccc3-c3ccccc3OC3CC3)CC2)c1 [Compound I-744, 4-chloro-3-(((1-(4-(2-cyclopropoxyphenyl)pyridin-3-yl)cyclopropyl)amino)methyl)-N-isopropyl-N-(4-(3-((2S,3R,4S,5R)-1,3,4,5,6-pentahydroxyhexan-2-yl)ureido)butyl)benzenesulfonamide]",< 100 nM
5,"CC(C)N(CCCCNC(=O)N[C@@H](CO)[C@@H](O)[C@H](O)[C@H](O)CO)S(=O)(=O)c1ccc(Cl)c(COC2(c3cnccc3-c3ccccc3OC3CC3)CCC2)c1 [Compound I-746, 4-chloro-3-((1-(4-(2-cyclopropoxyphenyl)pyridin-3-yl)cyclobutoxy)methyl)-N-isopropyl-N-(4-(3-((2S,3R,4S,5R)-1,3,4,5,6-pentahydroxyhexan-2-yl)ureido)butyl)benzenesulfonamide]",< 100 nM
6,"CC(C)N(CCCCNC(=O)NC[C@H](O)[C@@H](O)[C@H](O)[C@H](O)CO)S(=O)(=O)c1ccc(Cl)c(COC2(c3cnccc3-c3ccccc3OC3CC3)CCC2)c1 [Compound I-747, 4-chloro-3-((1-(4-(2-cyclopropoxyphenyl)pyridin-3-yl)cyclobutoxy)methyl)-N-isopropyl-N-(4-(3-((2S,3R,4R,5R)-2,3,4,5,6-pentahydroxyhexyl)ureido)butyl)benzenesulfonamide]",< 100 nM
7,"O=C(NC[C@H](O)[C@@H](O)[C@H](O)[C@H](O)CO)c1ccc(CCc2ccc(Cl)c(COC3(c4cnccc4-c4ccccc4OC4CC4)CC3)c2)cn1 [Compound I-748, 5-(4-chloro-3-((1-(4-(2-cyclopropoxyphenyl)pyridin-3-yl)cyclopropoxy)methyl)phenethyl)-N-((2S,3R,4R,5R)-2,3,4,5,6-pentahydroxyhexyl)picolinamide]",< 100 nM
8,"CC(C)N(CCCCNC(=O)N[C@@H](CO)[C@@H](O)[C@H](O)[C@H](O)CO)S(=O)(=O)c1ccc(Cl)c(COC2(c3cnccc3-c3ccccc3OC3CC3)CCOC2)c1 (stereo partly drawn) [Compound I-749, 4-chloro-3-(((3-(4-(2-cyclopropoxyphenyl)pyridin-3-yl)tetrahydrofuran-3-yl)oxy)methyl)-N-isopropyl-N-(4-(3-((2S,3R,4S,5R)-1,3,4,5,6-pentahydroxyhexan-2-yl)ureido)butyl)benzenesulfonamide]",< 100 nM
9,"CC(C)N(CCCCNC(=O)NC[C@H](O)[C@@H](O)[C@H](O)[C@H](O)CO)S(=O)(=O)c1ccc(Cl)c(COC2(c3cnccc3-c3ccccc3OC3CC3)CCOC2)c1 (stereo partly drawn) [Compound I-750, 4-chloro-3-(((3-(4-(2-cyclopropoxyphenyl)pyridin-3-yl)tetrahydrofuran-3-yl)oxy)methyl)-N-isopropyl-N-(4-(3-((2S,3R,4R,5R)-2,3,4,5,6-pentahydroxyhexyl)ureido)butyl) benzenesulfonamide]",< 100 nM
10,"CC(C)N(CCCCNC(=O)NC[C@H](O)[C@@H](O)[C@H](O)[C@H](O)CO)S(=O)(=O)c1ccc(Cl)c(CNC2(c3cnccc3-c3ccccc3OC3CC3)CC2)c1 [Compound I-751, 4-chloro-3-(((1-(4-(2-cyclopropoxyphenyl)pyridin-3-yl)cyclopropyl)amino)methyl)-N-isopropyl-N-(4-(3-((2S,3R,4R,5R)-2,3,4,5,6-pentahydroxyhexyl)ureido)butyl) benzenesulfonamide]",< 100 nM
11,"CC(OCc1cc(S(=O)(=O)N(CCCCNC(=O)N[C@@H](CO)[C@@H](O)[C@H](O)[C@H](O)CO)C(C)C)ccc1Cl)c1cnccc1-c1ccccc1OC1CC1 (stereo partly drawn) [Compound I-752, 4-chloro-3-((1-(4-(2-cyclopropoxyphenyl)pyridin-3-yl)ethoxy)methyl)-N-isopropyl-N-(4-(3-((2S,3R,4S,5R)-1,3,4,5,6-pentahydroxyhexan-2-yl)ureido)butyl)benzenesulfonamide]",< 100 nM

# Continued, values first:
row,EC50,Structure (SMILES)
1,< 100 nM,"CC(=O)N1CCCN(S(=O)(=O)c2ccc(Cl)c(COC3(c4cnccc4-c4ccccc4OC4CC4)CC3)c2)CC1 [Compound I-732, 1-(4-[[4-chloro-3-([1-[4-(2-cyclopropoxyphenyl)pyridin-3-yl]cyclopropoxy]methyl)benzene]sulfonyl]-1,4-diazepan-1-yl)ethan-1-one]"
2,< 100 nM,"O=S(=O)(c1ccc(Cl)c(COC2(c3cnccc3-c3ccccc3OC3CC3)CC2)c1)N1CCc2nc(O)ccc2C1 [Compound I-734, 6-[[4-chloro-3-([1-[4-(2-cyclopropoxyphenyl)pyridin-3-yl]cyclopropoxy]methyl)benzene]sulfonyl]-5,6,7,8-tetrahydro-1,6-naphthyridin-2-ol]"
3,126 to 1000 nM,"CSc1ccccc1-c1ccncc1C1(OCc2cc(Cl)ccc2Cl)CC1 [Compound I-739, 3-(1-((2,5-dichlorobenzyl)oxy)cyclopropyl)-4-(2-(methylthio)phenyl)pyridine]"
4,< 100 nM,"CC(C)(OCc1cc(Cl)ccc1Cl)c1cnccc1-c1ccccc1OC1CC1 [Compound I-740, 4-(2-cyclopropoxyphenyl)-3-(2-((2,5-dichlorobenzyl)oxy)propan-2-yl)pyridine]"
5,< 100 nM,"Clc1ccc(Cl)c(COC2(c3cnccc3-c3ccccc3OC3CC3)CCC2)c1 [Compound I-741, 4-(2-cyclopropoxyphenyl)-3-(1-((2,5-dichlorobenzyl)oxy)cyclobutyl)pyridine]"
6,126 to 1000 nM,"Clc1ccc(Cl)c(COC2(c3cnccc3-c3ccccc3OC3CC3)CCCC2)c1 [Compound I-742, 4-(2-cyclopropoxyphenyl)-3-(1-((2,5-dichlorobenzyl)oxy)cyclopentyl)pyridine]"
7,< 100 nM,"Clc1ccc(Cl)c(COC2(c3cnccc3-c3ccccc3OC3CC3)CCOC2)c1 (stereo not drawn) [Compound I-743, 4-(2-cyclopropoxyphenyl)-3-(3-((2,5-dichlorobenzyl)oxy)tetrahydrofuran-3-yl)pyridine]"
8,126 to 1000 nM,"CC(OCc1cc(Cl)ccc1Cl)c1cnccc1-c1ccccc1OC1CC1 (stereo not drawn) [Compound I-745, 4-(2-cyclopropoxyphenyl)-3-(1-((2,5-dichlorobenzyl)oxy)ethyl)pyridine]"
